Target: T1, ADRB2 (Homo sapiens, UniProt P07550)
T1 construct: purchased Promega (in-house HiBiT-GPCR construct library, NanoBRET)
Assay: NanoBRET screen HiBiT-ADRB2 in HEK293
Format: binding
Method: Each tracer candidate was screened across the entire library of HiBiT-GPCR constructs using NanoBRET as the detection modality. As depicted in Figure 4A, the specificity of interactions was evaluated through decrease in BRET due to competitive displacement of a bound tracer by excess parental compound. Each tracer was analyzed for binding to each HiBiT-GPCR fusion in the absence and in the presence of competing parental compound. Briefly, HEK293 cells were transfected with HiBiT-GPCR constructs diluted into promoterless DNA to reduce expression and maximize translocation to the cell surface. Each tracer candidate was then screened at concentrations of 1 μM and 0.1 μM across cells expressing these fusions. Cells were treated for 1.5 h with tracer either alone or in the presence of 20 μM competing parental compound (i.e., control). BRET was measured upon addition of purified LgBiT and subsequent complementation with HiBiT genetically fused to a GPCR. The specificity of interactions was assessed through a decrease in BRET signal due to competitive displacement of the bound tracer. To further gauge the robustness of these interactions, the fold response over the control (i.e., BRETtracer/BRETcontrol) was calculated. We chose a 1.5-fold response, which translates to ≥7-fold signal over noise as the minimal threshold required to score an interaction as positive.
HiBiT-GPCR DNA constructs were diluted in 10 mM Tris pH 8 to a final concentration of 0.01 μg/μL, arrayed in 96-well plates and stored at −20 °C. For transfection, HEK293 cells were suspended in Opti-MEM (without phenol red) supplemented with 2% fetal bovine serum (Seradigm) and 100 units/mL penicillin–streptomycin (Gibco) at a final concentration of 220,000 cells/mL and dispensed into white 96-well plates at 90 μL/well. Subsequent transfections and screens were carried using an Agilent Bravo Automated Liquid Handling Platform. First, the 96-well HiBiT DNA arrays were diluted 25-fold in Opti-MEM (without serum or phenol red) to a final concentration of 0.0004 μg/μL and 20 μL of the diluted DNAs were transferred into new 96-well plates. Next, promoterless carrier DNA (1 μg/μL) was diluted 25-fold (0.04 μg/μL) and then dispensed into the diluted arrays at 20 μL/well. Following brief mixing, Viafect transfection reagent (Promega) diluted 16-fold into Opti-MEM was dispensed into the plates at 40 μL/well. After mixing by pipetting, plates were incubated for 10 min on the pipetting station deck. The DNA-transfection reagent complexes were then added to plates containing cells. To facilitate the screen, 10 μL of DNA-transfection reagent complexes were added in duplicates to the top 4 and bottom 4 rows, resulting in two identical 48-well arrays per plate. Plates with transfected cells were incubated for 18–20 h at 37 °C/5% CO2. A screen of each tracer across the entire library using two different concentrations requires duplicate plates of transfected cells. Depending on the number of tracers being screened, transfections can be scaled up using the same ratios. The next day, for each tracer, four 20× screening solutions in tracer dilution buffer (Promega) were prepared: two duplicates at final concentration of 20 μM and two duplicates at a final concentration of 2 μM. […] The four resulting solutions were diluted 4-fold in Opti-MEM without serum or phenol red to generate 5× solutions (5 µM and 0.5 µM tracer +/− 100 μM competing compound). To screen the library, a BioTek MultiFlo FX liquid dispenser was used to dispense 22.5 µL of tracer solution to the top 4 rows and 22.5 µL tracer + competing compound solution to the 4 bottom rows. Plates were briefly mixed on an orbital shaker and incubated for 1.5 h at room temperature. […] Plates were briefly mixed on an orbital shaker and incubated for 15 min to allow complementation.

T1 sequence (P07550 whole entry): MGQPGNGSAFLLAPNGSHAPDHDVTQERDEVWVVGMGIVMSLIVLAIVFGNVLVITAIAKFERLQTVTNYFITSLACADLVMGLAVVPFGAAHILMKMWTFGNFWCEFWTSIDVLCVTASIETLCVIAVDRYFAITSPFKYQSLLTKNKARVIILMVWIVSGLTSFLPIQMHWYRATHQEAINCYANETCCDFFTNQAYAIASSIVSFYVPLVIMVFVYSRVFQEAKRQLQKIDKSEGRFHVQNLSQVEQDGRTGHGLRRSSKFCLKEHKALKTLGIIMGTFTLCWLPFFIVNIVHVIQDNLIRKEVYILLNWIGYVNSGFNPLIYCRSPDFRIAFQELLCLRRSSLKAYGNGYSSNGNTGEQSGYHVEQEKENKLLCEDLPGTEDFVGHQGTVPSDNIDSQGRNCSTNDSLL

| Structure (SMILES) | NanoBRET Fold Response (ADRB2, tracer 0.1μM) | NanoBRET Fold Response (ADRB2, tracer 1μM) | also measured |
| --- | --- | --- | --- |
| CCOC(=O)c1cc(C#N)c(N2CCC(C(=O)NS(=O)(=O)Cc3ccccc3/C=C/C(=O)NCCNC(=O)CCc3ccc4n3[B-](F)(F)[N+]3=C(c5ccc[nH]5)C=CC3=C4)CC2)nc1C [AZD1283-1-NB590] |  |  | NanoBRET Fold Response (ADRB2, 0.1μM): 1.01; NanoBRET Fold Response (ADRB2, 1μM): 1.06 |
| N#CN/C(=N\CCNC(=O)c1ccc(N)cc1)NCCCOc1cccc(CN2CCCCC2)c1 [Aminopotentidine (unmodified)] |  |  | NanoBRET Fold Response (ADRB2, other tracers/Aminopotentidine (unmodified), 0.1μM): 1.00; NanoBRET Fold Response (ADRB2, other tracers/Aminopotentidine (unmodified), 1μM): 1.04 |
| N#CN=C(NCCCOc1cccc(CN2CCCCC2)c1)NCCNC(=O)CCOCCOCCOCCOCCNC(=O)CCc1ccc2n1[B-](F)(F)[N+]1=C(c3ccc[nH]3)C=CC1=C2 [Aminopotentidine-2-NB590] | 1.05 | 1.02 |  |
| CN(C)CCC=C1c2ccccc2CCc2ccc(C(=O)NCCNC(=O)CCOCCOCCOCCOCCNC(=O)CCc3ccc4n3[B-](F)(F)[N+]3=C(c5ccc[nH]5)C=CC3=C4)cc21 [Amitriptyline-a-2-NB590] |  |  | NanoBRET Fold Response (tracer at 0.1μM): 1.04; NanoBRET Fold Response (tracer at 1μM): 1.03 |
| CN(C)CCC=C1c2ccccc2CCc2ccc(C(=O)NCCNC(=O)CCOCCOCCOCCOCCNC(=O)CCc3ccc4n3[B-](F)(F)[N+]3=C(c5ccc[nH]5)C=CC3=C4)cc21 [Amitriptyline-b-2-NB590] |  |  | NanoBRET Fold Response (tracer at 0.1μM, listed as amitriptyline-b-2-NB590): 1.08; NanoBRET Fold Response (tracer at 1μM, listed as amitriptyline-b-2-NB590): 0.96 |
| CN(CCC=C1c2ccccc2CCc2ccccc21)C(=O)CCOCCOCCOCCOCCNC(=O)CCc1ccc2n1[B-](F)(F)[N+]1=C(c3ccc[nH]3)C=CC1=C2 [Amitriptyline-e-2-NB590] |  |  | NanoBRET Fold Response (tracer at 1μM): 1.04 |
| COc1ccc2c(n1)c(CCNC(C)=O)cn2CCNC(=O)CCc1ccc2n1[B-](F)(F)[N+]1=C(c3ccc[nH]3)C=CC1=C2 [Azamelatonin-1-NB590] |  |  | NanoBRET Fold Response (0.1μM tracer): 0.97; NanoBRET Fold Response (1μM tracer): 0.90 |
| COc1ccc2[nH]c(-c3ccc(CNC(=O)CCOCCOCCOCCOCCNC(=O)CCc4ccc5n4[B-](F)(F)[N+]4=C(c6ccc[nH]6)C=CC4=C5)cc3)c(CCNC(C)=O)c2n1 [AzomelatoninICO9-2-NB590] |  |  | NanoBRET Fold Response (0.1μM tracer): 0.94; NanoBRET Fold Response (1μM tracer): 0.99 |
| O=C(CCOCCOCCOCCOCCNC(=O)CCc1ccc2n1[B-](F)(F)[N+]1=C(c3ccc[nH]3)C=CC1=C2)NCCCN1CCN(C2=Nc3cc(Cl)ccc3Nc3ccccc32)CC1 [Clozapine-a-2-NB590] |  |  | NanoBRET Fold Response (ADRB2, 0.1μM tracer): 1.09; NanoBRET Fold Response (ADRB2, 1μM tracer): 1.10 |
| CN1CCN(C2=Nc3cc(Cl)ccc3Nc3ccc(CNC(=O)CCOCCOCCOCCOCCNC(=O)CCc4ccc5n4[B-](F)(F)[N+]4=C(c6ccc[nH]6)C=CC4=C5)cc32)CC1 [Clozapine-b-2-NB590] |  |  | NanoBRET Fold Response (ADRB2, 0.1μM tracer): 1.01; NanoBRET Fold Response (ADRB2, 1μM tracer): 0.93 |
| CN1CCN(C2=Nc3cc(Cl)ccc3N(CC(=O)NCCOCCOCCOCCOCCNC(=O)CCc3ccc4n3[B-](F)(F)[N+]3=C(c5ccc[nH]5)C=CC3=C4)c3ccccc32)CC1 [Clozapine-c-2-NB590] |  |  | NanoBRET Fold Response (ADRB2, 0.1μM tracer): 0.99; NanoBRET Fold Response (ADRB2, 1μM tracer): 1.02 |
| O=C(CCOCCOCCOCCOCCNC(=O)CCc1ccc2n1[B-](F)(F)[N+]1=C(c3ccc[nH]3)C=CC1=C2)NCCCN1CCN(C2=Nc3ccccc3Oc3ccc(Cl)cc32)CC1 [Loxapine-a-2-NB590] | 1.06 | 0.94 |  |
| COc1ccccc1N1CCN(CCCCN2C(=O)c3ccc(CNC(=O)CCOCCOCCOCCOCCNC(=O)CCc4ccc5n4[B-](F)(F)[N+]4=C(c6ccc[nH]6)C=CC4=C5)cc3C2=O)CC1 [NAN-190-2-NB590] | 1.25 | 1.66 |  |
| COc1ccccc1N1CCN(CCCCN2C(=O)c3ccc(CNC(=O)CCOCCNC(=O)c4ccc(CNC(=O)CCc5ccc6n5[B-](F)(F)[N+]5=C(c7ccc[nH]7)C=CC5=C6)cc4)cc3C2=O)CC1 [NAN-190-3-NB590] | 1.00 | 1.45 |  |
| O=C(CCc1ccc2n1[B-](F)(F)[N+]1=C(c3ccc[nH]3)C=CC1=C2)NCc1ccc(C(=O)NCCOCCC(=O)N[C@@H]2CC[C@@]3(O)[C@H]4Cc5ccc(O)c6c5[C@@]3(CCN4CC3CC3)[C@H]2O6)cc1 [Naltrexone-3-NB590] | 1.36 | 0.89 |  |
| Cc1cc2c(s1)Nc1ccccc1N=C2N1CCN(CCCNC(=O)CCOCCOCCOCCOCCNC(=O)CCc2ccc3n2[B-](F)(F)[N+]2=C(c4ccc[nH]4)C=CC2=C3)CC1 [Olanzapine-a-2-NB590] | 1.01 | 1.15 |  |
| O=C(CCc1ccc2n1[B-](F)(F)[N+]1=C(c3ccc[nH]3)C=CC1=C2)NCCOCCOCCNC(=O)OCCOCCN1CCN(C2=Nc3ccccc3Sc3ccccc32)CC1 [Quetiapine-a-2-NB590] | 1.13 | 0.97 |  |
| Cc1nc2n(c(=O)c1CCN1CCC(c3noc4cc(F)ccc34)CC1)CCCC2OC(=O)NCCOCCOCCOCCOCCNC(=O)CCc1ccc2n1[B-](F)(F)[N+]1=C(c3ccc[nH]3)C=CC1=C2 (centres unmarked) [Risperidone-2-NB590] | 0.97 | 0.98 |  |
| CC(C)N(CC[C@H](c1ccccc1)c1cc(CCNC(=O)CCOCCOCCOCCOCCNC(=O)CCc2ccc3n2[B-](F)(F)[N+]2=C(c4ccc[nH]4)C=CC2=C3)ccc1O)C(C)C [Tolterodine-2-NB590] | 0.93 | 1.03 |  |
| CC(C)N(CC[C@H](c1ccccc1)c1cc(CCNC(=O)c2ccc(CNC(=O)CCc3ccc4n3[B-](F)(F)[N+]3=C(c5ccc[nH]5)C=CC3=C4)cc2)ccc1O)C(C)C [Tolterodine-BZ-NB590] | 1.04 | 1.19 |  |
| CCCn1c(=O)c2[nH]c(-c3ccc(OCC(=O)NCCNC(=O)CCOCCNC(=O)c4ccc(CNC(=O)CCc5ccc6n5[B-](F)(F)[N+]5=C(c7ccc[nH]7)C=CC5=C6)cc4)cc3)nc2n(CCC)c1=O [XAC-3-NB590] | 1.04 | 1.10 |  |
